From PubChem BioAssay AID2060609 (Molecular Pharmacology Branch, DTP, NCI, 2025)
Values joined by “and” are separate entries in the source; they are usually repeats but may differ in a detail not shown here. Equal values may be shown once.

Test system: 855422-203-R-J1-PDC complex spheroids, viability
Assay: Anticancer human tumor 855422-203-R-J1-PDC patient-derived bladder carcinoma cell line growth inhibition [CLK]
Conditions: for viability, T/C: stronger effect = lower value
Procedure, shortened: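 Multi-cell-type spheroids combined patient-derived tumor cells with HUVEC endothelial cells and human mesenchymal stem cells. Paired agents were dosed in half-log steps down from about clinical Cmax, or from 10 microM where Cmax was unknown.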
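Note: spheroids exposed to drugs for seven days before readout.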
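Throughout, for viability, T/C: 100% = DMSO vehicle control wells.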

## COc1c(OCCCN2CCOCC2)ccc2c3n(c(=NC(=O)c4cnc(N)nc4)nc12)CCN3 + CN1CCN(c2cc(C(=O)Nc3cc4cc(-c5cnn(C)c5)ccc4cn3)ccn2)CC1
Curve of first compound, second compound 0.0316 µM
  IC50: 16.8 nM
Curve of first compound, second compound 0.1 µM
  IC50: 16.1 nM
Curve of first compound, second compound 0.316 µM
  IC50: < 3.16 nM
Curve of first compound, second compound 1 µM
  IC50: < 3.16 nM
Curve of first compound, second compound 3.16 µM
  IC50: < 3.16 nM
Curve of first compound, second compound 10 µM
  IC50: < 3.16 nM
Second compound 0.0316 µM, first compound 0.00316 µM
  viability, T/C: 99.6%
Second compound 0.0316 µM, first compound 0.01 µM
  viability, T/C: 62.2%
Second compound 0.0316 µM, first compound 0.0316 µM
  viability, T/C: 36.4%
Second compound 0.0316 µM, first compound 0.1 µM
  viability, T/C: 11.9%
Second compound 0.0316 µM, first compound 0.316 µM
  viability, T/C: 3.81%
Second compound 0.0316 µM, first compound 1 µM
  viability, T/C: 2.23%
Second compound 0.1 µM, first compound 0.00316 µM
  viability, T/C: 72.3%
Second compound 0.1 µM, first compound 0.01 µM
  viability, T/C: 63.5%
Second compound 0.1 µM, first compound 0.0316 µM
  viability, T/C: 31.1%
Second compound 0.1 µM, first compound 0.1 µM
  viability, T/C: 10.7%
Second compound 0.1 µM, first compound 0.316 µM
  viability, T/C: 3.24%
Second compound 0.1 µM, first compound 1 µM
  viability, T/C: 2.43%
Second compound 0.316 µM, first compound 0.00316 µM
  viability, T/C: 8.06%
Second compound 0.316 µM, first compound 0.01 µM
  viability, T/C: 6.72%
Second compound 0.316 µM, first compound 0.0316 µM
  viability, T/C: 3.02%
Second compound 0.316 µM, first compound 0.1 µM
  viability, T/C: 1.03%
Second compound 0.316 µM, first compound 0.316 µM
  viability, T/C: 0.35%
Second compound 0.316 µM, first compound 1 µM
  viability, T/C: 0.51%
Second compound 1 µM, first compound 0.00316 µM
  viability, T/C: 0.24%
Second compound 1 µM, first compound 0.01 µM
  viability, T/C: 0.17%
Second compound 1 µM, first compound 0.0316 µM
  viability, T/C: 0.09%
Second compound 1 µM, first compound 0.1 µM
  viability, T/C: 0.07%
Second compound 1 µM, first compound 0.316 µM
  viability, T/C: 0.05%
Second compound 1 µM, first compound 1 µM
  viability, T/C: 0.12%
Second compound 3.16 µM, first compound 0.00316 µM
  viability, T/C: 0.37%
Second compound 3.16 µM, first compound 0.01 µM
  viability, T/C: 0.37%
Second compound 3.16 µM, first compound 0.0316 µM
  viability, T/C: 0.6%
Second compound 3.16 µM, first compound 0.1 µM
  viability, T/C: 0.12%
Second compound 3.16 µM, first compound 0.316 µM
  viability, T/C: 0.13%
Second compound 3.16 µM, first compound 1 µM
  viability, T/C: 0.1%
Second compound 10 µM, first compound 0.00316 µM
  viability, T/C: 0.23%
Second compound 10 µM, first compound 0.01 µM
  viability, T/C: 0.33%
Second compound 10 µM, first compound 0.0316 µM
  viability, T/C: 0.19%
Second compound 10 µM, first compound 0.1 µM
  viability, T/C: 0.18%
Second compound 10 µM, first compound 0.316 µM
  viability, T/C: 0.32%
Second compound 10 µM, first compound 1 µM
  viability, T/C: 0.15%

## CCc1c2c(nc3ccc(O)cc13)-c1cc3c(c(=O)n1C2)COC(=O)[C@]3(O)CC
Compound 0.00316 µM
  viability, T/C: 94.3% and 93.4%
Compound 0.01 µM
  viability, T/C: 16.8% and 20.4%
Compound 0.0316 µM
  viability, T/C: 15.4% and 10.1%
Compound 0.1 µM
  viability, T/C: 5.45% and 6.24%
Compound 0.316 µM
  viability, T/C: 3.48% and 3.36%
Compound 1 µM
  viability, T/C: 1.87% and 2.42%
Curve of compound
  IC50: 6.21 nM and 6.32 nM

## O=C(c1cc(Cc2n[nH]c(=O)c3ccccc23)ccc1F)N1CCN(C(=O)C2CC2)CC1
Compound 0.0316 µM
  viability, T/C: 118% and 121%
Compound 0.1 µM
  viability, T/C: 91.3% and 115%
Compound 0.316 µM
  viability, T/C: 110% and 104%
Compound 1 µM
  viability, T/C: 112% and 120%
Compound 3.16 µM
  viability, T/C: 119% and 130%
Compound 10 µM
  viability, T/C: 101% and 138%
Curve of compound
  IC50: > 10000 nM

## CN1CCN(c2cc(C(=O)Nc3cc4cc(-c5cnn(C)c5)ccc4cn3)ccn2)CC1
Compound 0.1 µM
  viability, T/C: 94% [middle of 12 runs]
Compound 0.316 µM
  viability, T/C: 9.83% [middle of 12 runs]
Compound 1 µM
  viability, T/C: 0.34% [middle of 11 runs]
Compound 3.16 µM
  viability, T/C: 0.57% [middle of 11 runs]
Compound 10 µM
  viability, T/C: 0.34% [middle of 11 runs]
Compound alone, run of 07/31/2023
  IC50: 181 nM [middle of 9 runs]

## COc1cccc2c1C(=O)c1c(O)c3c(c(O)c1C2=O)CC(O)(C(=O)CO)CC3OC1CC(N)C(O)C(C)O1 (centres undefined)
Compound 0.0316 µM
  viability, T/C: 15.1% and 13.7%
Compound 0.1 µM
  viability, T/C: 2.91% and 1.62%
Compound 0.316 µM
  viability, T/C: 1.09% and 1.08%
Compound 1 µM
  viability, T/C: 1.18% and 0.23%
Compound 3.16 µM
  viability, T/C: 0.29% and 0.47%
Compound 10 µM
  viability, T/C: 0.19% and 0.46%
Curve of compound
  IC50: < 31.6 nM
